Measurements as given in publication PMC10419174, “WR1065 conjugated to thiol-PEG polymers as novel anticancer prodrugs: broad spectrum efficacy, synergism, and drug resistance reversal” (Frontiers in Oncology, 2023).
Where “and” joins values, the source holds several entries; their conditions need not be identical. Identical values can stand only once. Like-named read-outs stand apart in the source and are kept apart here.

How the values were obtained:
[1] = system: Promyelocytic HL-60 leukemia cells; format: cell-based
Protocol: (§1) The percentage of growth inhibition was calculated as follows: […]

[2] = system: Malignant pleural mesothelioma HMESO1 cells; conditions: for Fold increase in efficacy: drug alone ÷ drug in 4SP65-DDP combination
Protocol: as §1

Pancreas PANC-1 cells = experiment: cells
Protocol: as §1

[3] = system: Malignant pleural mesothelioma PPMMill cells; experiment: cells; conditions: for Fold increase in efficacy: drug alone ÷ drug in 4SP65-DDP combination
Protocol: as §1

[4] = Prodrug stability in culture medium with alamarBlue, cell free, 72 h; format: in vitro ADME; conditions: standard growth medium, 37°C
Protocol: To determine drug stability in tissue culture medium for short-term treatments, 4SP65 was added to medium containing alamarBlue reagent in 96-well plates and incubated in the absence of cells at 37°C for 72 h. After this incubation period, wells with medium containing alamarBlue alone or both alamarBlue and 4SP65 were assessed for fluorescence readings using a Tecan Infinite 200 PRO plate reader (San Jose, CA, USA).

[5] = 48-h treatment, amifostine ND = not definable up to 500 µM
[6] = drug alone, 48 h, 4SP65/cisplatin study
[7] = drug alone, 48 h, 4SP65/cisplatin study, ND = not definable, highest concentration in parentheses

4-star-PEG-S-S-WR1065 [4SP65]
CC50 [1]: 7.5 ± 2.1 µM
GI50 ([1]; 48-h treatment): 1.9 ± 0.6 µM
IC50 ([1]; 48-h treatment): 4.4 ± 0.9 µM
LC99 ([1]; 48-h treatment): 10.2 ± 3.4 µM
TGI ([1]; 48-h treatment): 4.7 ± 0.7 µM and 4.7 µM
GI50 [2, 5]: 1.3 ± 0.4 µM
IC50 [2, 5]: 2.9 ± 1 µM
LC99 [2, 5]: 7.9 ± 2.6 µM
TGI [2, 5]: 2.9 ± 0.8 µM
Fold increase in efficacy ([2]; at GI50): 1.5 (NS) fold
Fold increase in efficacy ([2]; at IC50): 1.1 (NS) fold
Fold increase in efficacy ([2]; at LC50, GoE = gain of effect): 1.0 (NS) fold
Fold increase in efficacy ([2]; at LC99, GoE = gain of effect): 1.1 (NS) fold
Fold increase in efficacy ([2]; at TGI): 1.3 (NS) fold
GI50 [2, 6]: 2 ± 0.3 µM
IC50 [2, 6]: 4.7 ± 0.2 µM
TGI [2, 6]: 4.3 ± 0.2 µM
LC99 [2, 7]: 12.4 ± 0.1 µM
CC50 (Pancreas PANC-1 cells): 5 ± 0.3 µM
GI50 (Pancreas PANC-1 cells; [5]): 2.8 ± 0.6 µM
IC50 (Pancreas PANC-1 cells; [5]): 3.7 ± 0.6 µM
LC99 (Pancreas PANC-1 cells; [5]): 7.0 ± 0.5 µM
TGI (Pancreas PANC-1 cells; [5]): 4.0 ± 0.4 µM
Dose reduction value AMF ÷ 4SP65 (Pancreas PANC-1 cells; at GI50): 39 fold
GI50 [3, 5]: 6 ± 1.7 µM
IC50 [3, 5]: 7.4 ± 2 µM
LC99 [3, 5]: 14.8 ± 2.9 µM
TGI [3, 5]: 10.6 ± 3.0 µM
Fold increase in efficacy ([3]; at GI50): 1.3 (NS) fold
Fold increase in efficacy ([3]; at IC50): 1.3 (NS) fold
Fold increase in efficacy ([3]; at LC50, GoE = gain of effect): 1.3 (NS) fold
Fold increase in efficacy ([3]; at LC99, GoE = gain of effect): 1.3 (NS) fold
Fold increase in efficacy ([3]; at TGI, GoE = gain of effect): 1.3 (NS) fold
GI50 [3, 6]: 8.4 ± 1.5 µM
IC50 [3, 6]: 10 ± 1.9 µM
LC99 [3, 7]: 17.6 ± 3.5 µM
TGI [3, 7]: 14.1 ± 3.3 µM
change in fluorescence of alamarBlue reagent versus control wells [4]: no significant change
